Data taken from patent US20130143230A1, “MICROFLUIDIC-BASED CELL-CULTURING PLATFORM AND METHOD” (The Trustees of the Stevens Institute of Technology, priority 2011, published 2013).

How the values were obtained:
Type in all cases: cell-based, Human
[1] = test system: MCF-7; assay: Drug evaluation in microfluidic 3D breast cancer tissue culture (tissue nodules); conditions: flow 0.8 μL/min, one week, 3D microfluidic culture
Procedure: Human breast cancer cells (from immortalized cell line MCF-7) were incubated in a tissue culture chamber for 2 weeks with a continuous media flow at 0.8 μL/min. Initial cell attachment was seen across the entire chamber surface and continuously proliferated over time to form a 3D tissue layer having a depth of about 70-100 μm. […] These structures were similar to those observed in the earliest stages of tumor formation. A majority of the cells remained viable.
In contrast to pure cultures of breast cancer cells, co-cultures with stromal cells stimulate breast cancer cells. […] At three weeks of incubation, the nodule-like structures had become large enough to be recognized under a microscope, reaching 80-150 μm in diameter. Based on histological staining, the organization of these cells was consistent with their cancerous origin. The cells appeared to be transformed, having an increased nuclear/cytoplasmic ratio, and the cell mass was disorganized.
Doxorubicin (Dox), a known anticancer drug, was first tested using the microfluidic breast tissue culture described in the preceding examples. Dox was delivered to the tissue nodules at 10 nM and 1 μM, respectively, at a flow rate of 0.8 μL/min of medium via the inlet for one week.
A new lytic anticancer peptide (L5) was designed and synthesized to interact with cell membranes and therefore disrupt membrane integrity and destroy cells. The peptide drug was delivered to the tissue nodules at 30 μg/mL in the medium at a flow rate of 0.8 μL/min of medium via inlet for 2 days. […] Occasionally, some nuclei were still seen in the remaining tissue matrix. […] This may be due to a reduced rate of diffusion of the drug to the area of the surviving cells. This finding highlights the value of using the microfluidic culture model for drug assessment as it provides a more accurate representation of the 3D cellular organization encountered in vivo. It also hints at a plausible explanation to why some breast cancer therapies fail in vivo or why recurrence and multidrug resistance occurs after chemotherapy. […]

[2] = test system: MCF-7; assay: Photodynamic therapy in 2D culture, live/dead staining
Source text: […] After cellular uptake, 5-ALA was converted into photosensitive protoporphyrin (PpIX). […] High ROS concentrations led to cell destruction. To determine the extent of cell damage, the culture was stained with a live/dead staining kit (Sigma) after overnight culture and examined with a Leica confocal microscope.

[3] = test system: MCF-7; assay: Photodynamic therapy in 3D cultured breast cancer tissue, live/dead staining; conditions: 3D tissue, perfusion 4 hours, broadband halogen light 1 minute, stained after overnight culture
Procedure: A photosensitizer precursor drug, aminolevulinic acid (5-ALA) was supplemented in the culture media delivered to a 3D cultured breast cancer tissue (MCF-7), and allowed to infiltrate the tissue via perfusion for 4 hours to emulate microinjection. After cellular uptake, 5-ALA was converted into photosensitive protoporphyrin (PpIX). […] High ROS concentrations led to cell destruction. To determine the extent of cell damage, the culture was stained with a live/dead staining kit (Sigma) after overnight culture and examined with a Leica confocal microscope.

| Structure (SMILES) | progression of tumor nodules (real-time images) ([1]; 10 nM in medium) | formation of dark nodules (real-time images) ([1]; 1 μM in medium) | tissue growth ([1]; 1 μM in medium) | cells killed after PDT treatment [2] | cells killed after PDT treatment [3] |
| --- | --- | --- | --- | --- | --- |
| COc1cccc2c1C(=O)c1c(O)c3c(c(O)c1C2=O)C[C@@](O)(C(=O)CO)C[C@@H]3O[C@H]1C[C@H](N)[C@H](O)[C@H](C)O1 [Dox, Doxorubicin] | continuous progression of tumor nodules was observed | No obvious formation of dark nodules was observed | continuous tissue growth was noticed |  |  |
| NCC(=O)CCC(=O)O [5-ALA, aminolevulinic acid] |  |  |  | about 70% | about 50% |
